Assay results from patent US20220177471A1, “N-1 BRANCHED ALKYL SUBSTITUTED IMIDAZO[4,5-C]QUINOLINE COMPOUNDS, COMPOSITIONS, AND METHODS” (3M INNOVATIVE PROPERTIES COMPANY, priority 2019, published 2022).
Like-named read-outs stand apart in the source and are kept apart here.

Test system: Human peripheral blood mononuclear cells (PBMC)
Test: Cytokine induction in human cells (PBMC), cytokines by ELISA / multiplex bead assay
Assay type: cell-based
Details: for minimal effective concentration: human PBMC, 21-24 hours, lowest concentration giving cytokine level at least 2x negative control; for cytokine production (statement in words): IFN-alpha, IFN-gamma, TNF-alpha
Description: Whole blood was obtained from healthy human donors and collected by venipuncture into vacutainer tubes or syringes containing EDTA. Human peripheral blood mononuclear cells (PBMC) were purified from the whole blood by density gradient centrifugation. Histopaque 1077 (15 mL, Sigma, St. Louis, Mo.) was transferred to 6×50 mL sterile polypropylene conical tubes. The Histopaque was overlayed with 15-25 mL of blood diluted 1:2 in Hank's Balanced Salts Solution (HBSS) (Gibco, Life Technologies, Grand Island, N.Y.). The tubes were then centrifuged at 1370 revolutions per minute (rpm) for 30 minutes at 20° C., with no brake (400×g, GH 3.8 A Rotor).
The interface (buffy coat) containing the PBMC was collected and placed in a new sterile 50 mL conical polypropylene centrifuge tube. The PBMC were mixed with an equal volume of HBSS (about 20 mL from the interface and about 20 mL of HBSS), and then centrifuged at 1090 rpm, 10 minutes, 20° C., with brake (270×g, GH 3.8 A Rotor). After completing centrifugation, the cells were resuspended in 2-3 mL ACK Red blood cell lysis buffer (ammonium chloride potassium solution, Gibco, Life Technologies) and incubated for 2-5 minutes at 20° C. Next, HBSS (40 mL) was added to the cells, and the sample was centrifuged at 270×g for 10 minutes at 20° C. The supernatant was decanted, and the cell pellet was resuspended in 5 mL AIM V Medium (Gibco, Life Technologies). Cell aggregates and debris were removed by filtering the cell solution through a BD Falcon 70 micron nylon cell strainer (BD Biosciences, San Jose, Calif.).
The number of viable cells was determined by counting with a Miltenyi FACS instrument (Miltenyi Biotec Inc., San Diego, Calif.) or by using a hemacytometer. For determining cell viability with a hemacytometer, the cells were diluted 1/10 in 0.4% trypan blue and HBSS (specifically, 50 microliter of trypan blue+40 microliter of HBSS+10 microliter of cell solution were added to a microfuge tube and mixed). Ten microliters of the diluted cells were then applied to the hemacytometer, and the number of viable PBMC were determined by microscopy.
The PBMC sample was then resuspended in 96-well plates at a concentration of 8×10^5 cells/well in 0.1 mL of AIM-V medium. Each compound was solubilized in dimethyl sulfoxide (DMSO) to create a 3 mM stock solution. The stock solution was then further diluted with AIM-V medium to prepare the serial dilutions. The diluted compound (100 microliters) was then transferred to the PBMCs to produce testing sets with final compound concentrations of either 30, 10, 3.3, 1.1, 0.37, 0.12, 0.04, 0.01 micromolar (testing set A); 100, 30, 10, 3.3, 1.1, 0.37, 0.12, 0.04, 0.01, 0.005 micromolar (testing set B); 100, 33.3, 11.1, 3.7, 1.2, 0.41 micromolar (testing set C); or 100, 50, 30, 10, 3.3, 1.1, 0.37, 0.12, 0.04 micromolar (testing set D). The plates also had both positive and negative controls. The negative control wells contained only AIM-V medium with no example compound. The positive control wells contained a control set of imiquimod serially diluted to concentrations of either 30, 10, 3.3, 1.1, 0.37, 0.12, 0.04, 0.01 micromolar (control set A); 100, 30, 10, 3.3, 1.1, 0.37, 0.12, 0.04, 0.01, 0.005 micromolar (control set B); 100, 33.3, 11.1, 3.7, 1.2, 0.41 micromolar (control set C); or 100, 50, 30, 10, 3.3, 1.1, 0.37, 0.12, 0.04 micromolar (control set D). The concentrations used in the control set were selected to match the concentrations used in the testing set. The plates were then cultured at 37° C./5% CO2 for 21-24 hours. Cell-free supernatants were harvested by centrifuging the 96-well plates at 2100 rpm, 23° C. for 10 minutes. Approximately 160 microliters of the supernatant was then stored in a NUNC 96-well plate, covered with the compression cap and stored at −80° C. until the cytokine analysis was done.
IFN-alpha cytokine levels (picograms/mL) were measured by ELISA (human IFN-alpha, pan specific, Mabtech, Cincinnati, Ohio). […]

[1] = ELISA, read-out: MEC to Induce Cytokine: IFN-alpha
[2] = multiplex bead assay, read-out: MEC to Induce Cytokine: IFN-gamma
[3] = multiplex bead assay, read-out: MEC to Induce Cytokine: TNF-alpha

CC(C)Cn1cnc2c(N)nc3ccccc3c21 [Comparative Example 1, 1-isobutylimidazo[4,5-c]quinolin-4-amine, reference compound]
minimal effective concentration [1]: 11.1 µM
minimal effective concentration [2]: 11.1 µM
minimal effective concentration [3]: 11.1 µM

CC(C)(O)Cn1cnc2c(N)nc3ccccc3c21 [Comparative Example 2, 1-(4-aminoimidazo[4,5-c]quinolin-1-yl)-2-methyl-propan-2-ol, reference compound]
minimal effective concentration [1]: 10 µM
minimal effective concentration [2]: 10 µM
minimal effective concentration [3]: 10 µM

CC(C)[C@@H](C)n1cnc2c(N)nc3ccccc3c21 [Example 1, 1-[(1R)-1,2-dimethylpropyl]imidazo[4,5-c]quinolin-4-amine]
minimal effective concentration [1]: 3.7 µM
minimal effective concentration [2]: 3.7 µM
minimal effective concentration [3]: 1.2 µM

CC(C)[C@H](C)n1cnc2c(N)nc3ccccc3c21 [Example 2, 1-[(1S)-1,2-dimethylpropyl]imidazo[4,5-c]quinolin-4-amine]
cytokine production (statement in words): inactive toward cytokine production
minimal effective concentration [1]: > 100 µM
minimal effective concentration [2]: > 100 µM
minimal effective concentration [3]: > 100 µM

C[C@@H](n1cnc2c(N)nc3ccccc3c21)C(C)(C)C [Example 3, 1-[(1R)-1,2,2-trimethylpropyl]imidazo[4,5-c]quinolin-4-amine]
minimal effective concentration [1]: 1.2 µM
minimal effective concentration [2]: 1.2 µM
minimal effective concentration [3]: 1.2 µM

C[C@H](n1cnc2c(N)nc3ccccc3c21)C(C)(C)C [Example 4, 1-[(1S)-1,2,2-trimethylpropyl]imidazo[4,5-c]quinolin-4-amine]
cytokine production (statement in words): inactive toward cytokine production
minimal effective concentration [1]: > 100 µM
minimal effective concentration [2]: > 100 µM
minimal effective concentration [3]: > 100 µM

C[C@H](C1CCCCC1)n1cnc2c(N)nc3ccccc3c21 [Example 5, 1-[(1R)-1-cyclohexylethyl]imidazo[4,5-c]quinolin-4-amine]
minimal effective concentration [1]: 0.41 µM
minimal effective concentration [2]: 1.2 µM
minimal effective concentration [3]: 0.41 µM

C[C@@H](C1CCCCC1)n1cnc2c(N)nc3ccccc3c21 [Example 6, 1-[(1S)-1-cyclohexylethyl]imidazo[4,5-c]quinolin-4-amine]
cytokine production (statement in words): inactive toward cytokine production
minimal effective concentration [1]: > 100 µM
minimal effective concentration [2]: > 100 µM
minimal effective concentration [3]: > 100 µM

CCCC[C@H](C(C)C)n1cnc2c(N)nc3ccccc3c21 [Example 7, 1-[(1R)-1-isopropylpentyl]imidazo[4,5-c]quinolin-4-amine]
minimal effective concentration [1]: 0.12 µM
minimal effective concentration [2]: > 30 µM
minimal effective concentration [3]: 0.12 µM

CCCC[C@@H](n1cnc2c(N)nc3ccccc3c21)C(C)(C)C [Example 8, 1-[(1R)-1-tert-butylpentyl]imidazo[4,5-c]quinolin-4-amine]
minimal effective concentration [1]: 0.04 µM
minimal effective concentration [2]: > 30 µM
minimal effective concentration [3]: 0.04 µM

C[C@@H](n1cnc2c(N)nc3ccccc3c21)C(C)(C)O [Example 9, (3R)-3-(4-aminoimidazo[4,5-c]quinolin-1-yl)-2-methyl-butan-2-ol]
minimal effective concentration [1]: 3.3 µM
minimal effective concentration [2]: 3.3 µM
minimal effective concentration [3]: 10 µM

C[C@H](n1cnc2c(N)nc3ccccc3c21)C(C)(C)O [Example 10, (3S)-3-(4-aminoimidazo[4,5-c]quinolin-1-yl)-2-methyl-butan-2-ol]
cytokine production (statement in words): inactive toward cytokine production
minimal effective concentration [1]: > 30 µM
minimal effective concentration [2]: > 30 µM
minimal effective concentration [3]: > 30 µM

CC[C@@H](n1cnc2c(N)nc3ccccc3c21)C(C)(C)O [Example 11, (3R)-3-(4-aminoimidazo[4,5-c]quinolin-1-yl)-2-methyl-pentan-2-ol]
minimal effective concentration [1]: 1.1 µM
minimal effective concentration [2]: 3.3 µM
minimal effective concentration [3]: 1.1 µM

CC[C@H](n1cnc2c(N)nc3ccccc3c21)C(C)(C)O [Example 12, (3S)-3-(4-aminoimidazo[4,5-c]quinolin-1-yl)-2-methyl-pentan-2-ol]
cytokine production (statement in words): inactive toward cytokine production
minimal effective concentration [1]: > 100 µM
minimal effective concentration [2]: > 100 µM
minimal effective concentration [3]: > 100 µM

CCC[C@@H](n1cnc2c(N)nc3ccccc3c21)C(C)(C)O [Example 13, (3R)-3-(4-aminoimidazo[4,5-c]quinolin-1-yl)-2-methyl-hexan-2-ol]
minimal effective concentration [1]: ≤ 0.41 µM
minimal effective concentration [2]: ≤ 0.41 µM
minimal effective concentration [3]: ≤ 0.41 µM

CCC[C@H](n1cnc2c(N)nc3ccccc3c21)C(C)(C)O [Example 14, (3S)-3-(4-aminoimidazo[4,5-c]quinolin-1-yl)-2-methyl-hexan-2-ol]
cytokine production (statement in words): inactive toward cytokine production
minimal effective concentration [1]: > 30 µM
minimal effective concentration [2]: > 30 µM
minimal effective concentration [3]: > 30 µM

CCCC[C@@H](n1cnc2c(N)nc3ccccc3c21)C(C)(C)O [Example 15, (3R)-3-(4-aminoimidazo[4,5-c]quinolin-1-yl)-2-methyl-heptan-2-ol]
minimal effective concentration [1]: ≤ 0.04 µM
minimal effective concentration [2]: 0.12 µM
minimal effective concentration [3]: 0.12 µM

CCCC[C@H](n1cnc2c(N)nc3ccccc3c21)C(C)(C)O [Example 16, (3S)-3-(4-aminoimidazo[4,5-c]quinolin-1-yl)-2-methyl-heptan-2-ol]
cytokine production (statement in words): inactive toward cytokine production
minimal effective concentration [1]: > 100 µM
minimal effective concentration [2]: > 100 µM
minimal effective concentration [3]: > 100 µM

CC(C)C[C@@H](n1cnc2c(N)nc3ccccc3c21)C(C)(C)O [Example 17, (3R)-3-(4-aminoimidazo[4,5-c]quinolin-1-yl)-2,5-dimethyl-hexan-2-ol]
minimal effective concentration [1]: 10 µM
minimal effective concentration [2]: 10 µM
minimal effective concentration [3]: 10 µM

CC(C)C[C@H](n1cnc2c(N)nc3ccccc3c21)C(C)(C)O [Example 18, (3S)-3-(4-aminoimidazo[4,5-c]quinolin-1-yl)-2,5-dimethyl-hexan-2-ol]
cytokine production (statement in words): inactive toward cytokine production
minimal effective concentration [1]: > 100 µM
minimal effective concentration [2]: > 100 µM
minimal effective concentration [3]: > 100 µM

CCC(O)(CC)[C@@H](C)n1cnc2c(N)nc3ccccc3c21 [Example 19, (2R)-2-(4-aminoimidazo[4,5-c]quinolin-1-yl)-3-ethyl-pentan-3-ol]
minimal effective concentration [1]: 1.1 µM
minimal effective concentration [2]: 3.3 µM
minimal effective concentration [3]: 1.1 µM

C[C@@H](n1cnc2c(N)nc3ccccc3c21)C(C)(C)F [Example 20, 1-[(1R)-2-fluoro-1,2-dimethyl-propyl]imidazo[4,5-c]quinolin-4-amine]
minimal effective concentration [1]: 10 µM
minimal effective concentration [2]: 30 µM
minimal effective concentration [3]: 10 µM
